How the values were obtained:
Assay type in all cases: cell-based, human
[1] = tested on: LNCaP cells; experiment: Annexin-V/PI apoptosis assay by flow cytometry; settings: 24 h
Procedure: (§1) Cell cycle distribution and Annexin V/Propidium iodide (PI) positive cells were analyzed using flow cytometry. In brief, first the cells were seeded and treated with 0, 10, 20 and 40 μM conjugate in complete medium for 24 h. This was followed by trypsinizing and fixing in 70% ethanol, and finally washing with PBS. Subsequently, the cells were treated with RNase A (50 μg/ml), stained with PI (50 μg/ml) and incubated in the dark for 30 min at room temperature and analyzed by flow cytometry for cell cycle distribution. For apoptosis, the conjugate treated cells were stained with Alexa-Fluor 488-conjugated Annexin-V using the Vybrant-Apoptosis Assay Kit from Invitrogen (USA) as per the manufacturer’s protocol. The stained cells were then analyzed by fluorescence activated cell sorting (FACS Calibur, BD Biosciences, San Jose, CA, USA) and the data were standardized using Cell Quest 3.3 software.

[2] = tested on: PC-3 cells; experiment: Annexin-V/PI apoptosis assay by flow cytometry; settings: 24 h
Procedure: as §1

[3] = tested on: caspase-3 expression in LNCaP cells; experiment: Immunoblot analysis of apoptotic markers; settings: highest dose (40 μM), immunoblot densitometry
Procedure: (§2) The whole-cell lysates were prepared as described previously in immunoprecipitation (IP) buffer containing 50 mM Tris-HCl (pH 8.0), 150 mM NaCl, 5 mM EDTA, and 1% Triton X-100. Protein aliquots of 500 μg were then incubated overnight at 4°C using 2 μg of antibody directed against AR. The Protein A-Cl Agarose beads were then added and further incubated for 6 h at 4°C. The immunoprecipitates were washed four times with the IP buffer and the immunocomplexes were recovered by boiling in SDS sample buffer. Finally the western blot was carried out using anti-AR, anti-SRC-1 and anti-GRIP-1 antibodies (Santa Cruz, CA, USA). For western blot analysis, the cell lysates were prepared after harvesting them in lysis buffer. About 40 μg of total protein was electrophoresed by 12% SDS-PAGE, and the western blotting was carried out using standard protocol. In brief, the analyzed proteins were transferred to nylon membranes. The blots were then blocked with TBST buffer (20 mM Tris-Cl, pH 7.5, 150 mM sodium chloride, 0.05% Tween-20) containing 5% skim milk powder. They were then washed with TBST buffer and incubated overnight at 4°C with the same buffer containing appropriate amounts of primary antibodies: caspase-3, Bax, Bcl-2, Akt, p-Akt, ERK, p-ERK, AR, SRC-1, GRIP-1 (1∶500) and β-actin (1∶1000). The blots were then washed and incubated with anti-rabbit secondary antibody (1∶20,000) conjugated with horseradish peroxidase (HRP). Color development was performed in the dark by using an ECL kit (Amersham, GE Healthcare, Buckinghamshire, UK). The developed blots were subjected to densitometric analysis by ImageJ 1.43 software (NIH, USA) using β-actin as internal control.

[4] = tested on: caspase-3 expression in PC-3 cells; experiment: Immunoblot analysis of apoptotic markers; settings: PC-3, highest dose (40 μM), immunoblot densitometry
Procedure: as §2

[5] = tested on: p-Akt in LNCaP cells; experiment: Immunoblot of Akt phosphorylation; settings: below 20 μM, 24 h
Procedure: as §2
(§3) The siRNAs against human Akt and ERK and control siRNA were purchased commercially from Santa Cruz Biotechnology (USA). The LNCaP and PC-3 PCa cells were transfected with siRNAs (at a final concentration of 100 nM) using polyfect transfection reagent (Qiagen, CA, USA) according to manufacturer’s instructions. After 24 h of transfection, the cells were washed properly and replaced with fresh medium. The cells were then treated with 20 μM conjugate for 24 h, and finally protein lysates were prepared on completion of treatment. The levels of p-Akt, p-ERK and cleaved caspase-3 expressions were detected by Western blot analysis.

[6] = tested on: p-Akt in PC-3 cells; experiment: Immunoblot of Akt phosphorylation; settings: 24 h
Procedure: as §2, §3

[7] = tested on: LNCaP cells; experiment: MTT cell death with/without p53 inhibitor PFT-α; settings: 20 and 40 μM conjugate 24 h, 20 μM PFT-α pre-treatment
Text: Since there was no significant difference in the number of apoptotic cells between conjugate treated LNCaP (wild type p53) and PC-3 (p53 null) cells (p<0.05), it was intriguing to check if p53 has any role in conjugate induced apoptosis of PCa cells. For this study we employed a pharmacological approach using specific wild type p53 inhibitor, pifithrin-α (PFT-α). PFT-α is a small molecule that binds to the DNA binding domain of p53, thereby inhibiting its transcriptional activity. For our experiment the LNCaP cells were pre-treated with 20 μM PFT-α for 2 h prior to the addition of 20 and 40 μM of conjugate for next 24 h. Subsequently the drug treated cells were used to check caspase-3 activity and cell death by immunoblot analysis (Fig. 4A) and MTT assay (Fig. 4B) respectively. […] Next we determined the effect of p53-inhibition on conjugate induced cell death by using MTT assay.

Compound: COc1cc(/C=C/c2ccc(O)c(/C=N/NC(N)=S)c2)cc(OC)c1 [conjugate, Pterostilbene-isothiocyanate conjugate]
- early apoptotic cells (Annexin V positive only, lower right quadrant) ([1]; 20 μM): 52%
- late apoptotic cells (Annexin V and PI positive, upper right quadrant) ([1]; 20 μM): 8%
- late apoptotic cells (Annexin V and PI positive, upper right quadrant) ([1]; 40 μM): 18.5%
- early apoptotic cells (Annexin V positive only, lower right quadrant) ([2]; PC-3, 20 μM): about 44%
- late apoptotic cells (Annexin V and PI positive, upper right quadrant) ([2]; PC-3, 20 μM): 12%
- early apoptotic cells (Annexin V positive only, lower right quadrant) ([2]; PC-3, 40 μM): ~68%
- late apoptotic cells (Annexin V and PI positive, upper right quadrant) ([2]; PC-3, 40 μM): 16%
- enhancement of caspase-3 expression [3]: about 8.5 folds
- enhancement of caspase-3 expression [4]: ~6 folds
- effect on level of p-Akt [5]: negligible effects
- decrease in level of p-Akt ([6]; PC-3, 20 μM): ~2.2 folds
- decrease in level of p-Akt ([6]; PC-3, 40 μM): ~4.4 folds
- cell death with vs without PFT-α [7]: did not differ significantly

Reference: publication PMC3974779, “Pterostilbene-Isothiocyanate Conjugate Suppresses Growth of Prostate Cancer Cells Irrespective of Androgen Receptor Status” (PLoS ONE, 2014)
